# From publication PMC10044640, “Antimicrobial Peptides Designed against the Ω-Loop of Class A β-Lactamases to Potentiate the Efficacy of β-Lactam Antibiotics” (Antibiotics, 2023)
# Like-named read-outs stand apart in the source and are kept apart here.
# Columns and labels:
# E. coli CS109 [1] = assay: HT-SPOTi MIC of β-lactams with or without peptides; format: cell-based, Escherichia coli; details: for MIC Value Antibiotics, β-lactam alone: E. coli CS109, no peptide, HT-SPOTi agar, ~10^3 CFU/well, triplicate
# K. pneumoniae = assay: HT-SPOTi MIC of β-lactams with or without peptides; format: cell-based, Klebsiella pneumoniae; details: for MIC Value Antibiotics, β-lactam alone: K. pneumoniae, no peptide, triplicate
# M. smegmatis MC2 155 = assay: HT-SPOTi MIC of β-lactams with or without peptides; format: cell-based, Mycobacterium smegmatis; details: no peptide, triplicate
# [2] = tested on: E. coli CS109 + pBAD-TEM1; format: cell-based, Escherichia coli; details: E. coli CS109 + pBAD-TEM1 (arabinose-induced), no peptide; HT-SPOTi
# [3] = tested on: E. coli CS109 + pBAD-SHV-14; format: cell-based, Escherichia coli; details: E. coli CS109 + pBAD-SHV-14 (arabinose-induced), no peptide; HT-SPOTi
# E. coli CS109 [4] = assay: Broth microdilution MIC; format: cell-based, Escherichia coli; details: E. coli CS109, no peptide; broth microdilution (CLSI), MHB, ~10^5 cells/well, OD600; triplicate
# [5] = tested on: E. coli CS109 + pBAD-TEM1; format: cell-based, Escherichia coli; details: CS109 + pBAD-TEM1, no peptide; broth microdilution, MHB, ~10^5 cells/well, OD600
# [6] = tested on: E. coli CS109 + pBAD-SHV-14; format: cell-based, Escherichia coli
# TEM-1 = molecular target: T1, TEM-1 (Escherichia coli, UniProt P62593); assay: Kinetics of β-lactam hydrolysis with or without peptides; format: biochemical
# T1 construct: The full-length constructs (blaSHV-14 and blaTEM-1) were cloned and expressed in pBAD18-Cam (Cam^R) vector; 6xHis (N); made in house; host or cells: E. coli BL21 (DE3) pLysS, pET28a(+)
# T1 sequence (P62593 24-286 limits assumed): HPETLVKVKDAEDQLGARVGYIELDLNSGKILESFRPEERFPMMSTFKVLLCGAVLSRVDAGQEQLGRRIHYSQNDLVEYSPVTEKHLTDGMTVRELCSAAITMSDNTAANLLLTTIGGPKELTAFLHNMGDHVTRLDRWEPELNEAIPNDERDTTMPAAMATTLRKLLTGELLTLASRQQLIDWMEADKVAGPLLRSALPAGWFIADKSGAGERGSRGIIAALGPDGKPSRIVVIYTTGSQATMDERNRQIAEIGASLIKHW
# Method: (§1) The N-terminal 6X histidine-tagged proteins (SHV-14 and TEM-1) were expressed from the respective plasmid constructs already available in the laboratory and were purified by Ni-NTA affinity chromatography using an AKTA prime plus (GE Healthcare, Piscataway, NJ, USA) as described previously. Nitrocefin hydrolysis was used to validate the β-lactamase activity of both proteins.
# (§2) Assessment of enzyme activities was carried out by calculating the kinetic parameters [Michaelis–Menten constants (Km and Vmax), turn-over number (kcat), and catalytic efficiency (kcat/Km)] with various β-lactam substrates in the presence of the peptides as described previously. The hydrolysis reaction was carried out at 25 °C in 10 mM Tris-HCl, 300 mM NaCl (pH 7.5) buffer supplemented with 1 μg mL^−1 bovine serum albumin for protein stability. The enzyme concentrations (0.46 μM: SHV-14 and 0.42 μM: TEM-1) were taken to determine the initial rate constants at varying substrate concentrations (20–500 μM). The values were calculated using the online curve-fitting tool (https://www.mycurvefit.com, MyAssays Ltd., Brighton, UK, accessed on 25 May 2022).
# SHV-14 = assay: as above; format: biochemical, Klebsiella pneumoniae; details: SHV-14 0.46 μM, no peptide, 25 °C; for Km: 10 mM Tris-HCl, 300 mM NaCl pH 7.5, 1 μg/mL BSA, substrate 20–500 μM, read-out: Km, β-lactam substrate alone; for kcat, β-lactam substrate alone: pH 7.5
# Method: as §1, §2
# M. tuberculosis H37Rv = assay: HT-SPOTi MIC of ampicillin with or without peptides; format: cell-based; details: Mycobacterium tuberculosis, MTB H37Rv, control row of Table S2, read-out: MIC value, control drug
# [7] = tested on: Gram-negative strains (E. coli CS109, K. pneumoniae); assay: HT-SPOTi, cephalosporins with peptides; format: cell-based, Escherichia coli; Klebsiella pneumoniae; details: strain not given
# Method: HT-SPOTi (high-throughput spot culture growth inhibition) assay was used to evaluate the whole cell phenotypic effect of peptides against a selection of Gram-negative and acid-fast bacterial strains in the presence of β-lactam antibiotics as previously described. The distribution of the molten agar media into the 96 wells was achieved using the Multidrop Combi microplate dispenser (Thermo-Fisher Scientific). Plates were left for 5 min for the agar to set, and a diluted inoculum of bacteria was applied (2 µL of ∼10^3 CFU) into each well by either the use of a multi-channel pipettor or by using the Multidrop Combi. DMSO was taken as no antibiotic control and kanamycin as non-β-lactam drug control. Unless otherwise specified, all the experiments were performed in triplicate.
# To check the inhibitory activity of peptides and comprehend particular structure–activity relationships, HT-SPOTi assay was performed. The whole-cell phenotypic effect of the 10 pentapeptides was ascertained in combination with β-lactam antibiotics in E. coli CS109 and K. pneumoniae.
# [8] = tested on: CC1(C)S[C@@H]2[C@H](NC(=O)[C@H](N)c3ccc(O)cc3)C(=O)N2[C@H]1C(=O)O; assay: Kinetics of β-lactam hydrolysis with or without peptides; format: biochemical, Escherichia coli; details: other: TEM-1 0.42 μM, no peptide, 25 °C, 10 mM Tris-HCl, 300 mM NaCl pH 7.5, 1 μg/mL BSA, substrate 20–500 μM
# Method: as §1, §2
# [9] = tested on: CCN1CCN(C(=O)N[C@@H](C(=O)N[C@@H]2C(=O)N3[C@@H]2SC(C)(C)[C@@H]3C(=O)O)c2ccccc2)C(=O)C1=O; assay: as above; format: biochemical, Escherichia coli; details: other: TEM-1 0.42 μM, no peptide, 25 °C, 10 mM Tris-HCl, 300 mM NaCl pH 7.5, 1 μg/mL BSA, substrate 20–500 μM
# Method: as §1, §2
# [10] = CS109 + pBAD-SHV-14, no peptide, broth microdilution, MHB, ~10^5 cells/well, OD600
# [11] = TEM-1 0.42 μM, no peptide; 25 °C, pH 7.5
Compound,"MIC Value Antibiotics, β-lactam alone (E. coli CS109 [1])","MIC Value Antibiotics, β-lactam alone (K. pneumoniae)","MIC Value of Antibiotics, β-lactam alone [2]","MIC Value of Antibiotics, β-lactam alone (E. coli CS109 [4])",Km (SHV-14),"kcat, β-lactam substrate alone (SHV-14)",levels of resistance to the cephalosporin with peptides [7],other results
"CC1(C)S[C@@H]2[C@H](NC(=O)[C@H](N)c3ccccc3)C(=O)N2[C@H]1C(=O)O [Amp, Ampicillin]",4 µg/mL,32 µg/mL,16 µg/mL,8 µg/mL,187 ± 12.2 µM,644.95 ± 10.97 s⁻¹,,"MIC Value Antibiotics, β-lactam alone (M. smegmatis MC2 155): 4 µg/mL; MIC Value of Antibiotics, β-lactam alone [3]: 32 µg/mL; MIC Value of Antibiotics, β-lactam alone [5]: 32 µg/mL; MIC Value of Antibiotics, β-lactam alone [6, 10]: 64 µg/mL; kcat, β-lactam substrate alone (TEM-1; [11]): 290 ± 85.55 s⁻¹; Km (TEM-1; read-out: Km, β-lactam substrate alone; TEM-1 0.42 μM, no peptide; 25 °C, 10 mM Tris-HCl, 300 mM NaCl pH 7.5, 1 μg/mL BSA; substrate 20–500 μM): 66 ± 12.2 µM"
"CC1(C)S[C@@H]2[C@H](NC(=O)[C@H](N)c3ccc(O)cc3)C(=O)N2[C@H]1C(=O)O [Amx, Amoxicillin]",8 µg/mL,64 µg/mL,32 µg/mL,16 µg/mL,112 ± 12.2 µM,416.95 ± 5.02 s⁻¹,,"MIC Value Antibiotics, β-lactam alone (M. smegmatis MC2 155): 2 µg/mL; MIC Value of Antibiotics, β-lactam alone [5]: 64 µg/mL"
NNC(=O)c1ccncc1 [Isoniazid],,,,,,,,MIC (M. tuberculosis H37Rv): 2 µg/mL
NC[C@H]1O[C@H](O[C@H]2[C@H](O)[C@@H](O[C@H]3O[C@H](CO)[C@@H](O)[C@H](N)[C@H]3O)[C@H](N)C[C@@H]2N)[C@H](O)[C@@H](O)[C@@H]1O [Kanamycin],,,,,,,,"MIC Value, non-β-lactam drug control (E. coli CS109 [1]; Table 4 control row, construct not given, one value under each column Pen, Amp, Amx, Pip, HT-SPOTi): 64 µg/mL; MIC Value, non-β-lactam drug control (K. pneumoniae; Table 3b control row, one value printed under each column Pen, Amp, Amx, Pip): 64 µg/mL"
"CCN1CCN(C(=O)N[C@@H](C(=O)N[C@@H]2C(=O)N3[C@@H]2SC(C)(C)[C@@H]3C(=O)O)c2ccccc2)C(=O)C1=O [Pip, Piperacillin]",16 µg/mL,64 µg/mL,64 µg/mL,16 µg/mL,98.7 ± 12.2 µM,432.09 ± 5.97 s⁻¹,,"MIC Value Antibiotics, β-lactam alone (M. smegmatis MC2 155): >250 µg/mL; MIC Value of Antibiotics, β-lactam alone [3]: 64 µg/mL; MIC Value of Antibiotics, β-lactam alone [5]: 125 µg/mL; MIC Value of Antibiotics, β-lactam alone [6, 10]: 125 µg/mL"
N[C@@H](C(=O)N[C@@H]1C(=O)N2C(C(=O)O)=C(Cl)CS[C@H]12)c1ccccc1 [cefaclor],,,,,,,remained unaltered,
CC1=C(C(=O)O)N2C(=O)[C@@H](NC(=O)[C@H](N)c3ccc(O)cc3)[C@H]2SC1 [cefadroxil],,,,,,,remained unaltered,
CO/N=C(\C(=O)N[C@@H]1C(=O)N2C(C(=O)[O-])=C(C[N+]3(C)CCCC3)CS[C@H]12)c1csc(N)n1 [cefepime],,,,,,,remained unaltered,
CCN1CCN(C(=O)N[C@@H](C(=O)N[C@@H]2C(=O)N3C(C(=O)O)=C(CSc4nnnn4C)CS[C@H]23)c2ccc(O)cc2)C(=O)C1=O [cefoperazone],,,,,,,remained unaltered,
CC(C)(O/N=C(\C(=O)N[C@@H]1C(=O)N2C(C(=O)[O-])=C(C[n+]3ccccc3)CS[C@H]12)c1csc(N)n1)C(=O)O [ceftazidime],,,,,,,remained unaltered,
Penicillin,32 µg/mL,32 µg/mL,64 µg/mL,64 µg/mL,144 ± 4.43 µM,586.95 ± 15.97 s⁻¹,,"MIC Value of Antibiotics, β-lactam alone [3]: 250 µg/mL; MIC Value of Antibiotics, β-lactam alone [6]: 500 µg/mL; Km (TEM-1; TEM-1 0.42 μM, no peptide; 25 °C, 10 mM Tris-HCl, 300 mM NaCl pH 7.5, 1 μg/mL BSA; substrate 20–500 μM; read-out: Km, β-lactam substrate alone): 67.2 ± 4.43 µM; kcat, β-lactam substrate alone (TEM-1; [11]): 386.95 ± 15.97 s⁻¹"
TEM-1 (Escherichia coli),,,,,,,,Km [8]: 105.09 ± 12.16 µM; kcat [8]: 427 ± 21 s⁻¹; Km [9]: 136.32 ± 12.16 µM; kcat [9]: 331 ± 12.2 s⁻¹
